Values of other authors in patent publication US20220202008A1, “BAIT FOR A PEST” (FALCON LIFE SCIENCES LTD, priority 2020, published 2022).

System: mouse
Details: acute dose

COC(C)(C)CCCC(C)CC=CC(C)=CC(=O)OC(C)C (stereo not shown) [methoprene, isopropyl 11-methoxy-3,7,11-trimethyldodeca-2,4-dienoate]
LD50: around 5000 ppm
